The subject of this experiment is heparinized whole blood. Description: Drug screening: inhibitor preincubation of whole blood, then PBS or rIL-2 stimulation, mRNA quantification. In kind it is cell-based, human. The text has this:
Beta-actin expression served as a control for the expression assay. Offensive immune markers characterized included tumor necrosis factor superfamily (TNFSF) 1 (lymphotoxin), 2 (TNFα), 5 (CD40L), 6 (FasL), 8 (CD30L), 9 (CD137L), 14 (LIGHT), and 15 (TL1A). Chemokines characterized included CCL2, CCL3, CCL4, CCL8, CCL11, CCL20, CXCL1, CXCL2, CXCL3, CXCL10. Interleukins characterized include IL6, IL8, IL10, IL17, and IL23. Immune effectors characterized include GM-CSF, INFγ, CD16, Granzyme B, CD122, and TGFB-1. Markers of defensive immune function characterized include FoxP3, CTLA4, CD25, and GARP-1. Other offensive or defensive immune markers, as well as other chemokines, interleukins or effectors (among other immune-associated markers) can be tested in certain embodiments.
Shaded boxes represent a fold increase of greater than 2 as well as a statistical p value of <0.05. […] The various inhibitor compounds used to pre-treat the whole blood samples are listing on the x-axis. […] Thus, this compound has a potential to block or reduce the offensive immune response and may function as a pro-immunosuppressant compound. […] Thus, from this set of experiments, it is unclear if this particular Jak inhibitor is well-suited for promoting offensive or defensive immune responses. Further dose-response studies and/or studies with additional immune markers are necessary to elucidate the efficacy of this compound.
Embodiments of the methods described herein are also well suited to the characterization of various derivative or modified compounds, in that a single assay can generate side by side data comparing of a panel of putative derivative compounds. Moreover, based on the distinct features of the data described above, embodiments of the methods described herein are useful to detecting defensive-specific (i.e. pro-offensive) inhibitor compounds for use in clinical situations. Thus, this assay platform is useful for the analysis/screening of common and selective inhibitors for offensive and defensive immune functions.

For `O=C1Nc2ccccc2/C1=C1/Nc2ccccc2/C1=N\OCC(O)CO` (stereo not shown) [E084], the “induction of IFNγ in response to PBS or rIL-2 in presence of inhibitor” value (additional experiments, FIG. 4A-4B) is given as “specific inhibition”. Also, where the note is “additional experiments, FIG. 4C-4D”, the “induction of TNFSF-1 in response to PBS or rIL-2 in presence of inhibitor” value is listed as “specific inhibition”. Further, the “induction of CD25 in response to PBS or rIL-2 in presence of inhibitor” value (additional experiments, FIG. 4G-4H) was “induced”. Further, the “induction of FoxP3 in response to PBS or rIL-2 in presence of inhibitor” value (additional experiments, FIG. 4I-4J) is recorded as “induced”.
As for `CC(C)(C)c1nc2c3cc[nH]c(=O)c3c3cc(F)ccc3c2[nH]1` [Jak inhibitor], the “induction of TNFSF1 mRNA in response to rIL-2 in presence of inhibitor” value (inhibitor 10 mM, 1 hour preincubation, then rIL-2 100 ng/ml 4 hours, FIG. 3A) is reported as “no induction”. The “induction of CD25 mRNA in response to rIL-2 in presence of inhibitor” value (inhibitor 10 mM, 1 hour preincubation, then rIL-2 100 ng/ml 4 hours, FIG. 3I) is given as “blocks induction”. Moreover, the “induction of FoxP3 mRNA in response to rIL-2 in presence of inhibitor” value (inhibitor 10 mM, 1 hour preincubation, then rIL-2 100 ng/ml 4 hours, FIG. 3J) is given as “blocks induction”.

The values above are taken from patent publication US20120258076A1, “METHOD FOR CHARACTERIZING HOST IMMUNE FUNTION BY EX VIVO INDUCTION OF OFFENSIVE AND DEFENSIVE IMMUNE MARKERS” (HITACHI CHEMICAL RESEARCH CENTER, INC., priority 2009, published 2012).
